Laboratory results taken from PubChem BioAssay (NCI).
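Five concentrations, 48 hours, 96-well plates. At the GI50, growth is halved. TGI: total growth inhibition.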

Key:
Assay in all cases: NCI-60 cell line screen, 48 h
[1] = tested on: HS 578T breast
[2] = tested on: MCF7 breast
[3] = tested on: RPMI-8226 leukemia
[4] = tested on: ACHN renal
[5] = tested on: SNB-75 CNS
[6] = tested on: NCI-H23 lung
[7] = tested on: A549 NSCLC
[8] = tested on: UACC-257 melanoma

Question: What does the source list for `CO/N=C(/C)COc1ccc2c(c1)oc(=O)c1cc(OC)ccc12`?
Answer: GI50 [1]: > 100 µM; TGI [1]: > 100 µM; GI50 [2]: > 100 µM; TGI [2]: > 100 µM; GI50 [3]: > 100000 nM; TGI [3]: > 100 µM; GI50 [4]: 75 µM; TGI [4]: > 100 µM; GI50 [5]: 57.4 µM; TGI [5]: > 100 µM; GI50 [6]: > 100 µM; TGI [6]: > 100 µM; GI50 [7]: > 100 µM; TGI [7]: > 100 µM; GI50 [8]: > 100 µM; TGI [8]: > 100 µM

Question: `COc1cc(/C=C2\CCC/C(=C\c3cc(CN4CCCC4)c(O)c(OC)c3)C2=O)cc(CN2CCCC2)c1O` was tested. Which GI50 [1] did it give?
Answer: The GI50 was 5.75 µM.

Question: And the TGI [1]?
Answer: The TGI was 50.9 µM.

Question: And the GI50 [2]?
Answer: The GI50 was 4.82 µM.

Question: What about the TGI [2] of the same compound?
Answer: The TGI was 23.6 µM.

Question: And the GI50 [3]?
Answer: Its GI50 is 2160 nM.

Question: What about the TGI [3] of the same compound?
Answer: Its TGI is 7.58 µM.

Question: What about the GI50 [4] of the same compound?
Answer: The GI50 was 1.71 µM.

Question: And the TGI [4]?
Answer: Its TGI is 3.43 µM.

Question: What about the GI50 [5] of the same compound?
Answer: Its GI50 is 5.02 µM.

Question: What about the TGI [5] of the same compound?
Answer: Its TGI is 47.9 µM.

Question: What about the GI50 [6] of the same compound?
Answer: Its GI50 is 4.81 µM.

Question: What about the TGI [6] of the same compound?
Answer: Its TGI is 19.8 µM.

Question: And the GI50 [7]?
Answer: Its GI50 is 3.5 µM.

Question: What about the TGI [7] of the same compound?
Answer: Its TGI is 12.8 µM.

Question: What about the GI50 [8] of the same compound?
Answer: Its GI50 is 5.29 µM.

Question: What about the TGI [8] of the same compound?
Answer: Its TGI is 19.6 µM.

Question: Which results are given for `CC(=O)Oc1ccc(C2OC(c3ccc4ccccc4c3OC(C)=O)=NN2C(C)=O)c(OC(C)=O)c1` (configuration not stated)?
Answer: GI50 [1]: 12 µM; TGI [1]: > 100 µM; GI50 [2]: 0.413 µM; TGI [2]: > 38.6 µM; GI50 [3]: 568 nM; TGI [3]: > 39.5 µM; GI50 [4]: 0.264 µM; TGI [4]: > 100 µM; GI50 [5]: 1.13 µM; TGI [5]: > 31.4 µM; GI50 [6]: 1.28 µM; TGI [6]: 97.4 µM; GI50 [7]: 0.412 µM; TGI [7]: > 48.5 µM; GI50 [8]: 0.331 µM; TGI [8]: 6.59 µM

Question: With `CC(=O)OC(COc1ccc2c(c1)[n+]([O-])nc(N)[n+]2[O-])CN1CCCCC1` (configuration not stated) as the compound, how does the TGI [2] read?
Answer: The TGI was 65.8 µM.

Question: What about the TGI [3] of the same compound?
Answer: The TGI was 25.8 µM.

Question: What about the TGI [4] of the same compound?
Answer: The TGI was 39.3 µM.

Question: What about the TGI [5] of the same compound?
Answer: Its TGI is 46.7 µM.

Question: And the TGI [6]?
Answer: The TGI was 47.9 µM.

Question: What about the TGI [7] of the same compound?
Answer: Its TGI is 40.7 µM.

Question: What about the TGI [8] of the same compound?
Answer: The TGI was 29.1 µM.

Question: `COc1ccc2nc3cc([N+](=O)[O-])ccc3c(NCCO)c2c1` was tested. Which GI50 [1] did it give?
Answer: Its GI50 is 2.94 µM.

Question: What about the TGI [1] of the same compound?
Answer: Its TGI is 26.2 µM.

Question: What about the GI50 [2] of the same compound?
Answer: Its GI50 is 1.11 µM.

Question: What about the TGI [2] of the same compound?
Answer: Its TGI is 4.17 µM.

Question: What about the GI50 [3] of the same compound?
Answer: The GI50 was 1390 nM.

Question: And the TGI [3]?
Answer: The TGI was 7.16 µM.

Question: What about the GI50 [4] of the same compound?
Answer: The GI50 was 4.87 µM.

Question: And the TGI [4]?
Answer: Its TGI is 31.7 µM.

Question: And the GI50 [5]?
Answer: Its GI50 is 2.92 µM.

Question: And the TGI [5]?
Answer: Its TGI is 16.1 µM.

Question: And the GI50 [6]?
Answer: Its GI50 is 2.68 µM.

Question: And the TGI [6]?
Answer: The TGI was 9.59 µM.

Question: And the GI50 [7]?
Answer: Its GI50 is 4.44 µM.

Question: And the TGI [7]?
Answer: The TGI was 23.9 µM.

Question: What about the GI50 [8] of the same compound?
Answer: The GI50 was 2.61 µM.

Question: What about the TGI [8] of the same compound?
Answer: The TGI was 7.68 µM.

Question: What does the source list for `O=C(O)c1ccc(CSc2nc3ccccc3[nH]2)cc1`?
Answer: GI50 [1]: > 100 µM; TGI [1]: > 100 µM; GI50 [2]: > 100 µM; TGI [2]: > 100 µM; GI50 [3]: > 100000 nM; TGI [3]: > 100 µM; GI50 [4]: > 100 µM; TGI [4]: > 100 µM; GI50 [5]: > 100 µM; TGI [5]: > 100 µM; GI50 [6]: > 100 µM; TGI [6]: > 100 µM; GI50 [7]: > 100 µM; TGI [7]: > 100 µM; GI50 [8]: > 100 µM; TGI [8]: > 100 µM

Question: What does the source list for `Nc1nc(N)c2cc(S(=O)(=O)c3ccc4ccccc4c3)ccc2n1`?
Answer: TGI [1]: > 73.8 µM; GI50 [2]: 5.17 µM; TGI [2]: > 100 µM; TGI [3]: > 100 µM; TGI [4]: > 100 µM; TGI [5]: 12.3 µM; TGI [6]: > 100 µM; TGI [7]: > 100 µM; TGI [8]: 2.67 µM

Question: Which GI50 [1] does the source give for `NS(=O)(=O)c1ccc(N=Nc2c(O)[nH]c3ccc(C(=O)NCCCn4ccnc4)cc23)cc1` here?
Answer: The GI50 was greater than 25 µM.

Question: What about the TGI [1] of the same compound?
Answer: Its TGI is greater than 25 µM.

Question: And the GI50 [2]?
Answer: The GI50 was greater than 25 µM.

Question: And the TGI [2]?
Answer: The TGI was greater than 25 µM.

Question: What about the GI50 [3] of the same compound?
Answer: Its GI50 is greater than 25000 nM.

Question: What about the TGI [3] of the same compound?
Answer: The TGI was greater than 25 µM.

Question: What about the GI50 [4] of the same compound?
Answer: Its GI50 is greater than 25 µM.

Question: And the TGI [4]?
Answer: Its TGI is greater than 25 µM.

Question: And the GI50 [5]?
Answer: Its GI50 is greater than 25 µM.

Question: And the TGI [5]?
Answer: Its TGI is greater than 25 µM.

Question: And the GI50 [6]?
Answer: The GI50 was greater than 25 µM.

Question: What about the TGI [6] of the same compound?
Answer: The TGI was greater than 25 µM.

Question: And the GI50 [7]?
Answer: The GI50 was greater than 25 µM.

Question: What about the TGI [7] of the same compound?
Answer: The TGI was greater than 25 µM.

Question: And the GI50 [8]?
Answer: The GI50 was greater than 25 µM.

Question: What about the TGI [8] of the same compound?
Answer: Its TGI is greater than 25 µM.
